What was measured:
[1] = target: T1, Sodium channel protein type 9 subunit alpha (Homo sapiens, UniProt Q15858); experiment: Displacement of [3H]GX-545 from Nav1.7 VSD4 (unknown origin)
Target sequence in this assay (Q15858 whole entry): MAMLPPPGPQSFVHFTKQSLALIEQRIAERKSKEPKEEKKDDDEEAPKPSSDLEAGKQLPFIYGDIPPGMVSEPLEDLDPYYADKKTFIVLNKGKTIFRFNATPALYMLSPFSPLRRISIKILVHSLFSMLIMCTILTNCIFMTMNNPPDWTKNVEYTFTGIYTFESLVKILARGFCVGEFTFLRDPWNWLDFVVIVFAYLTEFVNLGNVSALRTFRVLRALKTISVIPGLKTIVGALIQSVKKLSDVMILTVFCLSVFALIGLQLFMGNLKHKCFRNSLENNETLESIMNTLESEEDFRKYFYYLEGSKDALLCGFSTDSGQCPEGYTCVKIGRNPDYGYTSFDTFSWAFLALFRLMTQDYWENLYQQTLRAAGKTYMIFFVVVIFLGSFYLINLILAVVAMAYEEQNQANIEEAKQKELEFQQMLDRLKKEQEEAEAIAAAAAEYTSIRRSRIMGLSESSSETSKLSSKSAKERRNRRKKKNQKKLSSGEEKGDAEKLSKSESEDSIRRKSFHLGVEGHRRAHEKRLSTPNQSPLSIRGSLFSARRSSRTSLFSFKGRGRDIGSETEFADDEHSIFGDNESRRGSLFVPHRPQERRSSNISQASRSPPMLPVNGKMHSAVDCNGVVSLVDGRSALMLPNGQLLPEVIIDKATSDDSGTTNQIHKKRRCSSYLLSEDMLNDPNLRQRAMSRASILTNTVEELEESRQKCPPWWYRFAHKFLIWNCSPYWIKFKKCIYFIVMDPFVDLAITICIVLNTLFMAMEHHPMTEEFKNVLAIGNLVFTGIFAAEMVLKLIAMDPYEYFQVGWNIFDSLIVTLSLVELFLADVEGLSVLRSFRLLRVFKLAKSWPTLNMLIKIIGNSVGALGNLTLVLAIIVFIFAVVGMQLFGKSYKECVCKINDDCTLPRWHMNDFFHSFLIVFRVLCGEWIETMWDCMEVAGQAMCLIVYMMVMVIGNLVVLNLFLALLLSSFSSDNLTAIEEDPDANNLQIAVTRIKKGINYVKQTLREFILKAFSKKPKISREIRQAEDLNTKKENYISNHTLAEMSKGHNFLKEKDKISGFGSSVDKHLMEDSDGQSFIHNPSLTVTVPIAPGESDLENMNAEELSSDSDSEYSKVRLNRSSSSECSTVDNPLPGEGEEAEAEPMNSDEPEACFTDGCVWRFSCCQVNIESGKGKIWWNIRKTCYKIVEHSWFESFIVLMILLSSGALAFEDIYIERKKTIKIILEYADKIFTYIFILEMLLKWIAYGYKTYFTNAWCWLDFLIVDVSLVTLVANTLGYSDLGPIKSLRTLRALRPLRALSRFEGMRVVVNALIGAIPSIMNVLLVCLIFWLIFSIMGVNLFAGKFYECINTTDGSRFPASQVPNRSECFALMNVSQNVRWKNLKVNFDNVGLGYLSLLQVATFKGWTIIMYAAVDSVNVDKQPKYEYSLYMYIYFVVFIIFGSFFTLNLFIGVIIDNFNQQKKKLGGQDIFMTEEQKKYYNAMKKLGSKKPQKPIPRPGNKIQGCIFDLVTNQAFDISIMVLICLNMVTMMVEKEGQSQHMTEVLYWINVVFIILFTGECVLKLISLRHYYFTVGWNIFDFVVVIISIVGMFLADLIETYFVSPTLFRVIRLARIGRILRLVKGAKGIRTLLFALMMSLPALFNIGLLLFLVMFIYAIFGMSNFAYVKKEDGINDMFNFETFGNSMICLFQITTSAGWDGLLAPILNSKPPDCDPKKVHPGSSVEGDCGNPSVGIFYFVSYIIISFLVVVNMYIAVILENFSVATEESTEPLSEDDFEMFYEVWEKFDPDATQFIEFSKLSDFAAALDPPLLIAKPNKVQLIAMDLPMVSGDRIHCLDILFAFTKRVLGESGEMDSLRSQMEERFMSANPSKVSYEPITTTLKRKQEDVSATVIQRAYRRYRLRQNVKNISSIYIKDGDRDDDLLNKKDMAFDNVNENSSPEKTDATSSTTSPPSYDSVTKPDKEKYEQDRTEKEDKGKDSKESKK

[2] = target: T1, Sodium channel protein type 9 subunit alpha; experiment: Inhibition of human Nav1.7 by patch clamp electrophysiology
Target sequence in this assay (Q15858 whole entry): as above

[3] = target: Sodium channel protein type 5 subunit alpha (Homo sapiens, UniProt Q14524); experiment: Inhibition of human Nav1.5 by patch clamp electrophysiology
[4] = target: T1, Sodium channel protein type 9 subunit alpha; experiment: Inhibition of human Nav1.7 by sodium flux assay
Target sequence in this assay (Q15858 whole entry): as above

[5] = target: T1, Sodium channel protein type 9 subunit alpha; experiment: Inhibition of human Nav1.7 assessed as fold shift in IC50 in presence of BSA by sodium flux assay
Target sequence in this assay (Q15858 whole entry, looked up): as the sequence (Q15858 whole entry) above

[6] = Metabolic stability in human liver microsomes assessed as hepatic clearance; assay type: ADME, Microsome
[7] = Metabolic stability in mouse liver microsomes assessed as hepatic clearance; assay type: ADME, Microsome
[8] = AUC in mouse at 3 mg/kg, po; assay type: ADME, organism-based; conditions: in vivo, read-out: AUC

Sequence of Sodium channel protein type 5 subunit alpha (Q14524 whole entry): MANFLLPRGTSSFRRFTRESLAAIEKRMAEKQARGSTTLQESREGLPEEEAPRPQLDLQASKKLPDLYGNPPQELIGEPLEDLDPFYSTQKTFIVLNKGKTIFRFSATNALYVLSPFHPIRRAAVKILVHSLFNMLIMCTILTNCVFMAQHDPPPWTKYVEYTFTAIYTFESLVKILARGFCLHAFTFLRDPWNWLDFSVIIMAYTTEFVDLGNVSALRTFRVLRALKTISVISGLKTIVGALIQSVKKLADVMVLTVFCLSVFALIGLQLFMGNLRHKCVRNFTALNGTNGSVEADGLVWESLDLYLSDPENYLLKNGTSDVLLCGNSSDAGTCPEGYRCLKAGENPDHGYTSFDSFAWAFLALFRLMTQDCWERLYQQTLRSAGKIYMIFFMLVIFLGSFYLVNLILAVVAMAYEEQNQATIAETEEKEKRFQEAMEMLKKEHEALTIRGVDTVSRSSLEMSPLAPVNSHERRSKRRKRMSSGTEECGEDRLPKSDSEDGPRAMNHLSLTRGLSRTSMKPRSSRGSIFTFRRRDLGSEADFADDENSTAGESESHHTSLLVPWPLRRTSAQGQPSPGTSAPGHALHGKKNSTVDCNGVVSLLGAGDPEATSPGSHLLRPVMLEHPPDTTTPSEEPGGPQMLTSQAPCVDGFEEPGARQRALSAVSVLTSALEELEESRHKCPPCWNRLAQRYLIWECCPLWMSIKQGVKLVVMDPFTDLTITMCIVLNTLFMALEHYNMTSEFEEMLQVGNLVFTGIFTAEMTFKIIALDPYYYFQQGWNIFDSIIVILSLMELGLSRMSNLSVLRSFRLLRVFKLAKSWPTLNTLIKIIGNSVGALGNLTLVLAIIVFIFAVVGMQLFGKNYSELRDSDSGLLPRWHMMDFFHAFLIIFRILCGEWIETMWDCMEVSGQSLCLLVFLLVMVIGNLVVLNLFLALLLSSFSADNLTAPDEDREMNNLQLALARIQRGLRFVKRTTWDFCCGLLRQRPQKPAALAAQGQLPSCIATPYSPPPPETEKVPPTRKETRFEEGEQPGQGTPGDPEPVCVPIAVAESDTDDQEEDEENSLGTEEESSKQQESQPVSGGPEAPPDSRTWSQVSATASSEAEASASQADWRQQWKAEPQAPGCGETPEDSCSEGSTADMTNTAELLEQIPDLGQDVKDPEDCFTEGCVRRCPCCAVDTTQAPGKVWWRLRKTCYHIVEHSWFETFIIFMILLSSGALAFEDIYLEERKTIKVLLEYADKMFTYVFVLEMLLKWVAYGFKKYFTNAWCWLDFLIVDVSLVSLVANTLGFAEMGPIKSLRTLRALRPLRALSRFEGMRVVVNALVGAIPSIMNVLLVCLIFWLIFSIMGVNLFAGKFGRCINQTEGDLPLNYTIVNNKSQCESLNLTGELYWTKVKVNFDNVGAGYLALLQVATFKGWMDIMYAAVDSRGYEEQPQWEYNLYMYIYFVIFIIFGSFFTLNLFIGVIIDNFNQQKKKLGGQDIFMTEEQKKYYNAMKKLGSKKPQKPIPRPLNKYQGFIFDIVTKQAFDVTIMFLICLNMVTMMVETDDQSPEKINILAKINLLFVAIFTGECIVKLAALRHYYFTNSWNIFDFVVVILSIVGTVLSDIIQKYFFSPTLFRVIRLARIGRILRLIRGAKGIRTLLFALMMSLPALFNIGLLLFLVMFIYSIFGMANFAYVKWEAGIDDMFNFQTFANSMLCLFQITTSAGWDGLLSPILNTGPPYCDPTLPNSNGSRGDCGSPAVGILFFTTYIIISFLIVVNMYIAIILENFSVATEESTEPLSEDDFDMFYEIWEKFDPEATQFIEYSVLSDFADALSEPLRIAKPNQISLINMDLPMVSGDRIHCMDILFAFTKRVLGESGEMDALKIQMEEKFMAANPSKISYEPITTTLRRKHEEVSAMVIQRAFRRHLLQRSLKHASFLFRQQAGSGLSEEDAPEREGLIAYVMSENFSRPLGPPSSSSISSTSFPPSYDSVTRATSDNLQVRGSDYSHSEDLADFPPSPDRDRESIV

Structure (SMILES)	Ki [1] [nM]	further results
C[C@@H]1[C@H](F)CN(C(=O)c2cc(C3CC3)c(OCC34CC5CC(CC(C5)C3)C4)cc2F)[C@@H]1C(=O)O	220	–
C[C@@H]1C[C@@H](C(=O)O)N(C(=O)c2cc(C3CC3)c(OCC34CC5CC(CC(C5)C3)C4)cc2F)C1	85	–
C[C@@H]1[C@@H](C(=O)O)[C@H](C(=O)c2cc(C3CC3)c(OCC34CC5CC(CC(C5)C3)C4)cc2F)C[C@@H]1F	1.8	IC50 [2]: 10 nM; IC50 [3]: 6000 nM; IC50 [4]: 160 nM; fold change (FC) [5]: 1; CLhep predicted [6]: 11 mL/min/kg; CLhep predicted [7]: 53 mL/min/kg; AUC [8]: 0.24 µM·h
O=C(O)[C@@H]1[C@H](F)CCN1C(=O)c1cc(C2CC2)c(OCC23CC4CC(CC(C4)C2)C3)cc1F	170	–
O=C(O)[C@@H]1C[C@@H](O)CN1C(=O)c1cc(C2CC2)c(OCC23CC4CC(CC(C4)C2)C3)cc1F	390	–
N#C[C@@H]1C[C@@H](C(=O)O)N(C(=O)c2cc(C3CC3)c(OCC34CC5CC(CC(C5)C3)C4)cc2F)C1	120	–
C[C@@]1(C(=O)O)CCCN1C(=O)c1cc(C2CC2)c(OCC23CC4CC(CC(C4)C2)C3)cc1F	100	–
O=C(O)[C@@H]1C2CC(C2)N1C(=O)c1cc(C2CC2)c(OCC23CC4CC(CC(C4)C2)C3)cc1F	190	–

The remaining compounds from weak to strong by Ki [1], led by results:

Ki [1] [nM]	Structure (SMILES)	further results
870	N#C[C@H]1C[C@@H](C(=O)O)N(C(=O)c2cc(C3CC3)c(OCC34CC5CC(CC(C5)C3)C4)cc2F)C1	–
150	O=C(O)[C@@H]1C[C@H](O)CN1C(=O)c1cc(C2CC2)c(OCC23CC4CC(CC(C4)C2)C3)cc1F	–
49	C[C@H]1C[C@@H](C(=O)O)N(C(=O)c2cc(C3CC3)c(OCC34CC5CC(CC(C5)C3)C4)cc2F)C1	–
21	C[C@H]1[C@H](O)CN(C(=O)c2cc(C3CC3)c(OCC34CC5CC(CC(C5)C3)C4)cc2F)[C@@H]1C(=O)O	–
